Assay results as given in publication PMC8880564, “Design, Synthesis, and Biological Evaluation of a Novel VEGFR-2 Inhibitor Based on a 1,2,5-Oxadiazole-2-Oxide Scaffold with MAPK Signaling Pathway Inhibition” (Pharmaceuticals, 2022).

Legend:
Assay type in all cases: cell-based
[1] = system: NCI-59 human cancer cell lines; assay: NCI-60 one-dose SRB screening, full panel and subpanels; details: for activity at 10 µM / inhibition at 10 µM: Homo sapiens; for activity at 10 µM: mean over the full panel, 10 µM one dose, 48 h, SRB, read-out: growth percentage, Mean; for mean growth inhibition % (MGI%, GI%) / enhancement of the growth percentage (mean) / inhibition at 10 µM: full NCI-59 panel, 10 µM; for inhibition at 10 µM: read-out: mean growth inhibition % (MGI%, GI%)
Experimental: The structures of the synthesized compounds 6a–h, 12a–c, 11, 13a–c, and 14a–c were submitted to the National Cancer Institute’s Developmental Therapeutics Program (NCI-DTP), and all of them were selected for preliminary in vitro anticancer activity screening against NCI-59 human cancer cell lines at a concentration of 10 µM, using the sulforhodamine B (SRB) assay to determine the growth percentage and cell viability.
The in vitro NCI-60 cell line screening assay was conducted at the National Cancer Institute (NCI), Bethesda, USA against 59 cancer cell lines representing 9 types of cancers, as reported earlier. Briefly, the human cancer cell lines were grown in RPMI 1640 medium containing 5% fetal bovine serum and 2 mM L-glutamine and inoculated into 96-well microtiter plates in 100 μL (5000 to 40,000 cells/well). Then, the plates were incubated at 37 °C, 5% CO2, 95% air, and 100% relative humidity for 24 h. After that, two plates of each cell line were fixed in situ with TCA, to represent cell population at time zero (Tz). The tested compounds were dissolved in DMSO at 400-fold and added so that the final concentration became 10 μM. The plates were then incubated for an additional 48 h followed by the addition of cold TCA to terminate the assay in case of adherent cells. Then, the cells were fixed in situ by cold 50% (w/v) TCA (50 μL; final concentration, 10% TCA) and incubated for 1 h at 4 °C. After discarding the supernatant, the plates were washed 5 times with tap water and air dried. Sulforhodamine B (SRB) solution (100 μL) at 0.4% (w/v) in 1% HOAc was added to each well, and plates were incubated for 10 min. at rt. Then, washing with 1% acetic acid was conducted 5 times to remove the unbound dye followed by air drying. After that, 10 mM trizma base was added to solubilize the bound stain, and the absorbance was read on an automated plate reader at a wavelength of 515 nm. On the other hand, the methodology for suspension cells was the same except that 50 μL of 80% TCA (final concentration, 16% TCA) was gently added to terminate the assay by fixing settled cells at the bottom of the wells. Percentage growth inhibition (GI%) was calculated as follows:
Growth percentage=Ti (test growth in the presence of compound at 10 µM )−Tz (time zero)/C (control growth)−Tz (time zero)×100 for Ti ≥ Tz;
Growth percentage=Ti (test growth in the presence of compound at 10 µM )−Tz (time zero)/Tz (time zero)×100 for Ti < Tz.
where values of 100, 40, 0, −40, and −100 mean no GI, 60% GI, no net G, 40% lethality, and all cells are dead, respectively.
Data are expressed as a one-dose mean graph of growth percentages including the mean, delta, and range.

[2] = system: DU-145; assay: NCI-60 one-dose SRB screening; details: Homo sapiens, DU-145, Prostate Cancer, 10 µM one dose, 48 h, read-out: growth percentage
[3] = system: T-47D; assay: NCI-60 one-dose SRB screening; details: Homo sapiens, T47D, Breast Cancer, 10 µM one dose, 48 h, read-out: growth percentage
[4] = system: PC-3; assay: NCI-60 one-dose SRB screening; details: Homo sapiens, PC-3, Prostate Cancer, 10 µM one dose, 48 h, read-out: growth percentage
[5] = system: MOLT-4; assay: NCI-60 one-dose SRB screening; details: Homo sapiens, MOLT-4, Leukemia, 10 µM one dose, 48 h, read-out: growth percentage
[6] = system: SK-MEL-5; assay: NCI-60 one-dose SRB screening; details: Homo sapiens, SK-MEL-5, Melanoma, 10 µM one dose, 48 h, read-out: growth percentage
[7] = system: KM12; assay: NCI-60 one-dose SRB screening; details: Homo sapiens, KM12, Colon Cancer, 10 µM one dose, 48 h, read-out: growth percentage
[8] = system: SF-539; assay: NCI-60 one-dose SRB screening; details: Homo sapiens, SF-539, CNS Cancer, 10 µM one dose, 48 h, read-out: growth percentage
[9] = system: MCF7; assay: NCI-60 one-dose SRB screening; details: Homo sapiens, MCF7, Breast Cancer, 10 µM one dose, 48 h, read-out: growth percentage
[10] = system: UACC-62; assay: NCI-60 one-dose SRB screening; details: Homo sapiens, UACC-62, Melanoma, 10 µM one dose, 48 h, read-out: growth percentage
[11] = system: SF-268; assay: NCI-60 one-dose SRB screening; details: Homo sapiens, SF-268, CNS Cancer, 10 µM one dose, 48 h, read-out: growth percentage
[12] = system: SR; assay: NCI-60 one-dose SRB screening; details: Homo sapiens, Leukemia, 10 µM one dose, 48 h, read-out: growth percentage
[13] = system: HS 578T; assay: NCI-60 one-dose SRB screening; details: Homo sapiens, Breast Cancer, 10 µM one dose, 48 h, read-out: growth percentage
[14] = system: A498; assay: NCI-60 one-dose SRB screening; details: Homo sapiens, A498, Renal Cancer, 10 µM one dose, 48 h, read-out: growth percentage
[15] = system: LOX IMVI; assay: NCI-60 one-dose SRB screening; details: Homo sapiens, Melanoma, 10 µM one dose, 48 h, read-out: growth percentage
[16] = system: HCT-15; assay: NCI-60 one-dose SRB screening; details: Homo sapiens, HCT-15, Colon Cancer, 10 µM one dose, 48 h, read-out: growth percentage

SMILES	activity at 10 µM [1] [%]	mean growth inhibition % (MGI%, GI%) [1]	activity at 10 µM [2] [%]	activity at 10 µM [3] [%]	activity at 10 µM [4] [%]	activity at 10 µM [5] [%]	activity at 10 µM [6] [%]	activity at 10 µM [7] [%]	activity at 10 µM [8] [%]	activity at 10 µM [9] [%]	activity at 10 µM [10] [%]	activity at 10 µM [11] [%]	activity at 10 µM [12] [%]	activity at 10 µM [13] [%]	activity at 10 µM [14] [%]	activity at 10 µM [15] [%]	activity at 10 µM [16] [%]	enhancement of the growth percentage (mean) [1]	inhibition at 10 µM [1] [%]
[O-][n+]1onc(-c2ccccc2)c1COc1ccc(Nc2ncnc3c2cnn3-c2ccccc2)cc1 [6a, 4-phenyl-3-((4-((1-phenyl-1H-pyrazolo[3,4-d]pyrimidin-4-yl)amino)phenoxy)methyl)-1,2,5-oxadiazole 2-oxide]	100	no mean growth inhibition percentage	107	96	98.1	87.4	102	103	95.7	96.1	103	103	85.2	98.7	103	94.3	54.2		
Cc1nc(Nc2ccc(OCc3c(-c4ccccc4)no[n+]3[O-])cc2)c2cnn(-c3ccccc3)c2n1 [6b, 3-((4-((6-methyl-1-phenyl-1H-pyrazolo[3,4-d]pyrimidin-4-yl)amino)phenoxy)methyl)-4-phenyl-1,2,5-oxadiazole 2-oxide]	102		105	106	103	117	103	102	102	92.4	88.4	103	89.1	110	102	97.6	96.4	1–5%	
Cc1nn(-c2ccccc2)c2ncnc(Nc3ccc(OCc4c(-c5ccccc5)no[n+]4[O-])cc3)c12 [6c, 3-((4-((3-methyl-1-phenyl-1H-pyrazolo[3,4-d]pyrimidin-4-yl)amino)phenoxy)methyl)-4-phenyl-1,2,5-oxadiazole 2-oxide]	96.2		106	72	83.5	92.9	90.4	99.8	96.2	83	81.4	96.5	73.9	97.5	86.3	101	91.5		1.58 to 4.57
Cc1nc(Nc2ccc(OCc3c(-c4ccccc4)no[n+]3[O-])cc2)c2c(C)nn(-c3ccccc3)c2n1 [6d, 3-((4-((3,6-dimethyl-1-phenyl-1H-pyrazolo[3,4-d]pyrimidin-4-yl)amino)phenoxy)methyl)-4-phenyl-1,2,5-oxadiazole 2-oxide]	105		112	104	99	110	98	104	99.8	95.4	89.6	106	102	102	112	96.6	104	1–5%	
[O-][n+]1onc(-c2ccccc2)c1COc1ccc(Nc2ncnc3c2cnn3-c2ccc(Br)cc2)cc1 [6e, 3-((4-((1-(4-bromophenyl)-1H-pyrazolo[3,4-d]pyrimidin-4-yl)amino)phenoxy)methyl)-4-phenyl-1,2,5-oxadiazole 2-oxide]	101		107	99.9	97	103	95.9	103	98.4	87.9	89.1	101	98	110	94	111	94.9	1–5%	
Cc1nc(Nc2ccc(OCc3c(-c4ccccc4)no[n+]3[O-])cc2)c2cnn(-c3ccc(Br)cc3)c2n1 [6f, 3-((4-((1-(4-bromophenyl)-6-methyl-1H-pyrazolo[3,4-d]pyrimidin-4-yl)amino)phenoxy)methyl)-4-phenyl-1,2,5-oxadiazole 2-oxide]	99.7	no mean growth inhibition percentage	104	97.2	103	91.5	99.7	101	94.2	85.3	84.8	99.9	87.1	93.6	87.2	105	98.1		
Cc1nn(-c2ccc(Br)cc2)c2ncnc(Nc3ccc(OCc4c(-c5ccccc5)no[n+]4[O-])cc3)c12 [6g, 3-((4-((1-(4-bromophenyl)-3-methyl-1H-pyrazolo[3,4-d]pyrimidin-4-yl)amino)phenoxy)methyl)-4-phenyl-1,2,5-oxadiazole 2-oxide]	98.4		110	98.5	90.9	97.7	96.5	98.6	90.4	89	80.3	104	121	93.4	106	95	97.2		1.58 to 4.57
Cc1nn(-c2ccc(Br)cc2)c2nc(CCl)[nH]c(=O)c12 [13c]	88.3		110	91.5	96.3		103	83.6	77	82.3	101	99.4		108	-88.8	98.5	103		
